Results taken from the SangsterLogP compilation.

assay: method code SF-AS, from PMID: 4559156; details: pH 7.4

| SMILES | logD |
| --- | --- |
| CN1CC(O)CN(C)C1=Nc1ncc([N+](=O)[O-])s1 (stereo not given) | 0.16 |
| CN1CCN(C)C1=Nc1ncc([N+](=O)[O-])s1 | 0.92 |
| O=[N+]([O-])c1cnc(/N=C2/SCCN2CCO)s1 | 1.28 |
| CC1(C)NC(=Nc2ncc([N+](=O)[O-])s2)OC1(C)C | 2.4 |
| CN1CCN=C1Nc1ncc([N+](=O)[O-])s1 | 1.8 |
| CCN1CCNC1=Nc1ncc([N+](=O)[O-])s1 | 2.28 |
| CC(=O)OCCN1CCS/C1=N/c1ncc([N+](=O)[O-])s1 | 1.88 |
| CC1CNC(=Nc2ncc([N+](=O)[O-])s2)N1C (stereo not given) | 2.02 |
| O=[N+]([O-])c1cnc(N=C2NCCO2)s1 | 0.57 |
| O=[N+]([O-])c1cnc(N=C2NCC(O)CN2)s1 (stereo not given) | 0.74 |
| O=[N+]([O-])c1cnc(N=C2NCCN2CCO)s1 | 1.23 |
| O=[N+]([O-])c1cnc(/N=C2/OCCN2CCO)s1 | 0.43 |
| O=[N+]([O-])c1cnc(NC2=NCCN2)s1 | 1.38 |
| CC1CN(C)C(=Nc2ncc([N+](=O)[O-])s2)N1 (stereo not given) | 1.95 |
| CC1N=C(Nc2ncc([N+](=O)[O-])s2)OC1(C)C (stereo not given) | 1.88 |
